What was measured:
[1] = excess molar enthalpy (molar enthalpy of mixing); xn = mol fraction of the nth substance listed; conditions: 298.15 K, 101.33 kPa, Liquid, Flow calorimetry
[2] = molar heat capacity at constant pressure; xn = mol fraction of the nth substance listed; conditions: 101.33 kPa, Liquid, Vacuum adiabatic calorimetry
[3] = xn = mol fraction of the nth substance listed; conditions: 101.33 kPa, Liquid; for viscosity: Capillary tube (Ostwald / Ubbelohde) method; for mass density: Specific gravity balance

COP(=O)([O-])OC.Cn1cc[n+](C)c1 [1,3-dimethylimidazolium dimethylphosphate] + CO
[1]
Conditions	excess molar enthalpy [kcal/mol]
x1 = 0.165	-0.539
x1 = 0.28	-0.779
x1 = 0.466	-0.783
x1 = 0.593	-0.687
x1 = 0.744	-0.475
x1 = 1	0

Conditions	mass density, [3] [kg/m3]	molar heat capacity at constant pressure, [2] [J/K/mol]	viscosity, [3] [mPa·s]
298.15 K, x1 = 0.202	–	130.82	–
298.15 K, x1 = 0.203	1040.2	–	3.8
298.15 K, x1 = 0.399	1158.3	177.61	18.33
298.15 K, x1 = 0.591	–	215.46	–
298.15 K, x1 = 0.603	1205.5	–	53.9
298.15 K, x1 = 0.805	1236.4	–	145.63
298.15 K, x1 = 0.81	–	256.75	–
298.15 K, x1 = 1	1258.7	282.83	271.86
303.15 K, x1 = 0.202	–	144.77	–
303.15 K, x1 = 0.203	1037.1	–	3.32
303.15 K, x1 = 0.399	1155.2	191.43	16.56
303.15 K, x1 = 0.591	–	225.28	–
303.15 K, x1 = 0.603	1201.4	–	38.18
303.15 K, x1 = 0.805	1233	–	98.68
303.15 K, x1 = 0.81	–	261.78	–
303.15 K, x1 = 1	1255.9	296.61	188.3
308.15 K, x1 = 0.203	1033.2	–	3.06
308.15 K, x1 = 0.399	1151.2	–	12.43
308.15 K, x1 = 0.603	1197.8	–	31.37
308.15 K, x1 = 0.805	1229.7	–	75.4
308.15 K, x1 = 1	1253	–	139.49
313.15 K, x1 = 0.202	–	169.01	–
313.15 K, x1 = 0.203	1030.2	–	2.84
313.15 K, x1 = 0.399	1148.1	214.09	11.08
313.15 K, x1 = 0.591	–	246.8	–
313.15 K, x1 = 0.603	1194.1	–	25.8
313.15 K, x1 = 0.805	1226.4	–	61.57
313.15 K, x1 = 0.81	–	274.8	–
313.15 K, x1 = 1	1249.1	310.83	110.25
318.15 K, x1 = 0.203	1027.6	–	2.6
318.15 K, x1 = 0.399	1147	–	9.76
318.15 K, x1 = 0.603	1190.8	–	22.86
318.15 K, x1 = 0.805	1223.1	–	49.9
318.15 K, x1 = 1	1245.2	–	84.44
323.15 K, x1 = 0.202	–	190.07	–
323.15 K, x1 = 0.203	1025.1	–	2.4
323.15 K, x1 = 0.399	1140.1	233.4	8.79
323.15 K, x1 = 0.591	–	262.54	–
323.15 K, x1 = 0.603	1188	–	18.45
323.15 K, x1 = 0.805	1219.8	–	40.2
323.15 K, x1 = 0.81	–	290.24	–
323.15 K, x1 = 1	1241.5	321.05	69.99

COP(=O)([O-])OC.Cn1cc[n+](C)c1 [1,3-dimethylimidazolium dimethylphosphate] + CCO
[1]
Conditions	excess molar enthalpy [kcal/mol]
x1 = 0.177	-0.329
x1 = 0.307	-0.481
x1 = 0.524	-0.485
x1 = 0.665	-0.377
x1 = 0.8	-0.241
x1 = 1	0

Conditions	mass density, [3] [kg/m3]	molar heat capacity at constant pressure, [2] [J/K/mol]	viscosity, [3] [mPa·s]
298.15 K, x1 = 0.202	1000.6	–	6.83
298.15 K, x1 = 0.224	–	145.29	–
298.15 K, x1 = 0.408	–	193.74	–
298.15 K, x1 = 0.414	1116.5	–	22.99
298.15 K, x1 = 0.562	1166.7	–	48.76
298.15 K, x1 = 0.596	–	235.91	–
298.15 K, x1 = 0.803	–	258.54	–
298.15 K, x1 = 0.807	1223.2	–	137.88
298.15 K, x1 = 1	1258.7	282.83	271.86
303.15 K, x1 = 0.202	996.6	–	5.98
303.15 K, x1 = 0.224	–	153.59	–
303.15 K, x1 = 0.408	–	205.3	–
303.15 K, x1 = 0.414	1113.4	–	19
303.15 K, x1 = 0.562	1163.4	–	38.45
303.15 K, x1 = 0.596	–	247.99	–
303.15 K, x1 = 0.803	–	267.73	–
303.15 K, x1 = 0.807	1219.5	–	105.91
303.15 K, x1 = 1	1255.9	296.61	188.3
308.15 K, x1 = 0.202	992.7	–	5.3
308.15 K, x1 = 0.414	1109.8	–	16.21
308.15 K, x1 = 0.562	1159.7	–	30.8
308.15 K, x1 = 0.807	1216.8	–	80.22
308.15 K, x1 = 1	1253	–	139.49
313.15 K, x1 = 0.202	989.7	–	4.83
313.15 K, x1 = 0.224	–	172.15	–
313.15 K, x1 = 0.408	–	227.82	–
313.15 K, x1 = 0.414	1106.6	–	14.15
313.15 K, x1 = 0.562	1156.2	–	26.47
313.15 K, x1 = 0.596	–	280.92	–
313.15 K, x1 = 0.803	–	289.85	–
313.15 K, x1 = 0.807	1213.8	–	63.76
313.15 K, x1 = 1	1249.1	310.83	110.25
318.15 K, x1 = 0.202	986.9	–	4.32
318.15 K, x1 = 0.414	1103.5	–	12.35
318.15 K, x1 = 0.562	1152.4	–	22.23
318.15 K, x1 = 0.807	1211.4	–	50.57
318.15 K, x1 = 1	1245.2	–	84.44
323.15 K, x1 = 0.202	983.2	–	3.94
323.15 K, x1 = 0.224	–	190.19	–
323.15 K, x1 = 0.408	–	247.28	–
323.15 K, x1 = 0.414	1098.4	–	11.03
323.15 K, x1 = 0.562	1148.5	–	19.27
323.15 K, x1 = 0.596	–	299.34	–
323.15 K, x1 = 0.803	–	304.85	–
323.15 K, x1 = 0.807	1207.5	–	42.11
323.15 K, x1 = 1	1241.5	321.05	69.99

Source: the NIST ThermoML archive (doi:10.1016/j.fluid.2010.07.005)
